Key:
[1] = background statement; cited from earlier work
[2] = Serum carotenoids (lutein, zeaxanthin) by HPLC; type: in vivo, human; settings: after 2 and 4 months of supplementation
Procedure: (§1) Women were randomly assigned to one of four groups: Control (n=10), DHA (n=14, DHA 800 mg/d), lutein (n=12, lutein 12 mg/d), and lutein+DHA (n=14, lutein 12 mg/d; DHA 800 mg/d) (C, D, L, and LD, respectively). The supplement type was randomized. Subjects visited the Jean Mayer USDA Human Nutrition Research Center on Aging at Tufts University on days that supplements were distributed and blood obtained (0 mo-baseline, 2 mo, and 4 mo). Subjects were instructed to take the supplement with a nutritional energy drink (8 oz., Boost®, Mead Johnson Nutritionals) but were otherwise asked to not alter their diets. The diet of each subject was monitored with food frequency questionnaires (Block G, et al., A data-based approach to diet questionnaire design and testing. Am J Epidemiol, 1986. 24: p. 453-469) completed at baseline, 2 months and 4 months to be sure that there were no confounding changes in dietary intake. […] Compliance was by monitored by interview, compliance calendars and capsule count. […] Aliquots of serum are stored at −70° C. until analyzed. […]
(§2) Serum carotenoids were extracted and analyzed by HPLC using the method described by Yeum et al. (Yeum, K. J., et al., Am J Clin Nutr, 1996. 64(4): p. 594-602.). […]
(§3) Results are expressed as mean ±SE. […]

[3] = Serum DHA by gas-liquid chromatography; type: in vivo, human; settings: after 2 and 4 months of supplementation
Procedure: as §1, §2, §3

Structure (SMILES): CC1=C[C@H](O)CC(C)(C)[C@H]1/C=C/C(C)=C/C=C/C(C)=C/C=C/C=C(C)/C=C/C=C(C)/C=C/C1=C(C)C[C@@H](O)CC1(C)C [Lutein, lutein]
- Share transported in blood on HDL [1]: about 53%
- Share transported in blood on LDL [1]: about 31%
- Share transported in blood on VLDL [1]: about 16%
- Serum concentration of lutein, change from baseline [2]: significantly increased
- Serum concentration of DHA, change from baseline [3]: No significant changes

Source: patent US20080114066A1, “Synergistic Effects Of Docosahexaenoic Acid (DHA) And Carotenoid Absorption Of Cognitive Function” (Trustees of Tufts College, priority 2005, published 2008)
